Results taken from US6699682B2, “Assay for inhibitors of fatty-acid amide hydrolase” (The Scripps Research Institute, priority 1995, dated 2004).

Columns and labels:
male Sprague-Dawley rats = test: polysomnographic sleep recordings (EEG/EMG) in rats; format: in vivo, rat; settings: 10 mg ip, recorded four hours
Description: We have compared cis-9,10-octadecenoamide to vehicle and the synthetic analogs listed in FIG. 1 to estimate the structural specificity of its sleep-inducing potential. […] More particularly, male Sprague-Dawley rats (300 g at the time of surgery) were implanted under halothane anesthesia (2-3%) with a standard set of electrodes for sleep recordings. This included two screw electrodes placed in the parietal bone over the hippocampus to record the subjects electroencephalogram (EEG) and two wire electrodes inserted in the neck musculature to record postural tone through electromyographic activity (EMG). Rats were housed individually with at libitum access to food and water. The dark-light cycle was controlled (12:12, lights on a 10:00 p.m.). One week after the surgery, rats were habituated to the recording conditions for at least three days. Upon the completion of the habituation period, rats received 2 milliliter (ip) of either: vehicle (5% ethanol/saline solution), cis-9,10-octadecenoamide (10 mg), or oleic acid (10 mg). […] Sleep recordings were visually scored and four stages were determined: wakefulness, slow-wave-sleep 1 (SWS1), slow-wave-sleep 2 (SWS2), and rapid eye movement (REM) sleep.
These increases with respect to slow wave sleep (SWS) were at the expense of waking.

recombinant rat FAAH = target: T1, recombinant rat FAAH (Rattus norvegicus, UniProt P97612); test: oleamide hydrolase activity of rat FAAH-transfected COS-7 cell extract and its inhibition (TLC); format: biochemical; settings: versus untransfected and control transfected cells
T1 construct: expressed in transfected cells; host or cells: COS-7 cells, transient, pcDNA3; dounce-homogenised cell extract
T1 sequence (P97612 1-579): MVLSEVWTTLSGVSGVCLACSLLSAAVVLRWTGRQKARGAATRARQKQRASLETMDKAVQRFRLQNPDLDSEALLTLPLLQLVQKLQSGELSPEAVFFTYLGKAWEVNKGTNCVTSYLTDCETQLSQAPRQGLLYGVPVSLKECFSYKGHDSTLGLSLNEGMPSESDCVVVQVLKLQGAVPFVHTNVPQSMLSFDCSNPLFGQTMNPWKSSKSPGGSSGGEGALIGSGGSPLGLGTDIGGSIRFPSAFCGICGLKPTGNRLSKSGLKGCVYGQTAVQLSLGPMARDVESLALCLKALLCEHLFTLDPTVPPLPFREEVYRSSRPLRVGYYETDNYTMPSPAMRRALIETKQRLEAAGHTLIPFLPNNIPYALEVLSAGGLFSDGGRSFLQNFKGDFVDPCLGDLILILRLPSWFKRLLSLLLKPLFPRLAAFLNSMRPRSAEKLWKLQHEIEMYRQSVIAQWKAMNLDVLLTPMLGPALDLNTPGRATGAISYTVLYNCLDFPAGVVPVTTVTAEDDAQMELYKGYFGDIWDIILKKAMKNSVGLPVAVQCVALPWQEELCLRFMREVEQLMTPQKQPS
Procedure: The following thin layer chromatography (TLC) protocol is used for assaying cis-9,10 octadecenoamide hydrolysis activity, also referred to as fatty-acid amide hydrolase activity. Oleamide is first labeled with ^14C. To accomplish this, ^14C-Oleic acid (1-10 μM, Moravek Biochemicals, 5-50 μCi/μM) in CH2CL2 (200 μL, 0.005-0.05 M) at 0° C. was treated with excess oxalyl chloride and the reaction mixture was warmed to 25° C. for 6 hours. The reaction mixture was then concentrated under a constant stream of gaseous nitrogen and the remaining residue was cooled to 0° C. and treated with excess saturated aqueous ammonium hydroxide. After 5 minutes, the reaction mixture was partitioned between Et)Ac (1.5 mL) and 10% HCl (1.0 mL). The organic layer was then washed with water (1.0 mL) and concentrated under a constant stream of gaseous nitrogen to provide ^14C-oleamide in quantitative yield as judged by TLC (60% EtOAc in hexanes; oleamide Rf−0.2; oleic acid Rf−0.8). […]
While untransfected COS-7 cells contained negligible amounts of oleamide hydrolase activity, COS-7 cells transfected with the rat FAAH cDNA expressed high levels of oleamide hydrolase activity (FIG. 15A). The assay was performed as described in Section B where by TLC the conversion of oleamide to oleic acid was assessed. […]

SMILES: CCCCCCCC/C=C\CCCCCCCC(N)=O [cis-9,10-octadecenoamide, Cis-9,10-octadecenoamide]
- distribution of REM sleep (male Sprague-Dawley rats): does not seem to be altered
- mean duration of the SWS individual periods compared to vehicle controls (male Sprague-Dawley rats): increase
- total time of slow wave sleep (SWS) compared to vehicle controls (male Sprague-Dawley rats): increase in the total time of slow wave sleep (SWS)
- conversion of labeled substrate by rat FAAH-transfected COS-7 cells (qualitative, TLC) (recombinant rat FAAH): effective at converting labeled oleamide to oleic acid
